# In patent US8546611B2 (priority 2008, dated 2013):
# Tests used:
# [1] = tested on: Wistar rat males
# Description: Examples, illustrating the method invented, are presented below. […] SA is tested on rats endured an immobilization stress; the parameter tested is lymphocytic composition of blood, which is determined before and after stress in a blood smear taken from the caudal vein. […] A detailed description of the testing technique is given in Example 13.
# The animals were fixed while lying flat on their back, with their legs secured. […] Blood was taken from the caudal vein: 10 μl for counting blood corpuscles and 20 μl for preparing a smear with its subsequent staining by Romanovsky-Giemsa).
# First group: 10 min prior immobilization, the animals were injected (perorally, with the help of a stomach pump) with 1.5 ml of 1% starch solution. […] Blood was taken from the caudal vein at the moment of immobilization and 6 hours later, and stained blood smears were prepared to calculate the leukogram.
# [2] = tested on: erythroid cells isolated from the bone marrow of laboratory mice males; details: feed with succinic acid 20 mg/kg body wt., not irradiated, norm 5.0±1.0
# Description: The test for genotoxicity was performed on young laboratory mice males (18-20 g; 6 animals in each group). […] The control animals were given water.
# [3] = tested on: white rat females; details: female, in vivo, 5000 mg/kg
# [4] = compared with “natural” SA
# [5] = tested on: erythroid cells isolated from the bone marrow of gamma-irradiated laboratory mice males; experiment: Radioprotective properties (micronucleus test after gamma irradiation)
# [6] = tested on: patients with cardiac insufficiency
# Description: The test for cardiotonic activity of product samples was performed by measuring the dynamics of alteration of the functional class of cardiac failure. The functional class can be determined quite accurately by analyzing the everyday life activities according to a specific activity scale. The authors of this technique suppose that the criteria developed by NYHA (New York Heart Association) cannot provide accurate determination of functional class, since widely used terms, such as “everyday physical activity”, “sub-everyday activity” are not specific. On the basis of multiple tests, in which patients exercised on a treadmill, the authors calculated a scale of metabolic expenses for each kind of life activity (see Goldman L., Hashimoto B., Cook F. et al., Comparative reproducibility and validity of systems for assessing cardiovascular functional class: advantages of a new specific activity scale (1981) Circulation 64 (6):1227-34). This inquiry is designed to be used by medical personnel, interviewing a patient. After calculating the sum of possible energy expenses, the functional class of the patient is determined according to the summary criteria of the specific activity scale (Table 6).
# In the tests, the patient groups were formed so that the people of the same functional class were equally distributed among different groups. Severe patients (of IV functional class; those having oncological diseases or suffered myocardial infarction/stroke to the brain 60 days or less before) were not admitted to the tests. The distribution of patients among groups was governed by a random number generator. The tests were carried out by the following protocol. Each patient took 100 mg of the preparation twice per day (in the morning and after lunch) during 3 months—against the background of a standard therapy administered by a physician. […] All the samples and placebo were encoded before sending into the clinic, so none of those involved into the tests (patients, physicians, medical personnel and the manager of tests) was aware of the nature of samples.
# The functional class of patients was determined several times: at the beginning of tests (before the formation of test groups) and after 30, 60 and 90 days of treatment with the test samples. The estimation was performed on the basis of the activity scale (Table 7).
# [7] = 6 h after immobilization, 1.5 ml of 1% succinic acid perorally 10 min prior, listed as Ex. 3
# [8] = at the moment of immobilization, 1.5 ml of 1% succinic acid perorally 10 min prior, listed as Ex. 3
# [9] = 100 mg twice per day with standard therapy, after 30 days
# [10] = 100 mg twice per day with standard therapy, after 60 days
# [11] = 100 mg twice per day with standard therapy, after 90 days
# [12] = 100 mg twice per day, 3 months, with standard therapy, before treatment
smiles,measurement,setting,value
"O=C(O)CCC(=O)O [Example 3, succinic acid, reference compound]","adaptogenic properties, conclusion in words","[1]; 6-hour immobilization stress, Wistar rats",at the “borderline”
same,"Eosinophils, 6 h after",[1]; [7],0.5 ± 4%
same,"Lymphocytes, 6 h after",[1]; [7],73 ± 5%
same,"Number of leukocytes in 1 μl of blood, 6 h after",[1]; [7],7100
same,"Segmentated cells, 6 h after",[1]; [7],26 ± 3%
same,"Eosinophils, before",[1]; [8],2 ± 6%
same,"Lymphocytes, before",[1]; [8],76 ± 6%
same,"Number of leukocytes in 1 μl of blood, before",[1]; [8],5700
same,"Segmentated cells, before",[1]; [8],22 ± 3%
same,Number of micronuclei per 2000 cells (genotoxicity),[2],5.0 ± 0.6
same,"died, 14 day",[3]; 14 day,2
same,Total died,[3]; 14 days,2
same,"biological activity, overall conclusion in words",[4],higher activity but it is far from that of “natural” SA
same,"radioprotective effect, conclusion in words","[5]; gamma rays 1.3 Gy, 20 mg/kg body wt., 48 h, 20 mg/kg",close to the dividing line
same,Number of micronuclei per 2000 cells (radioprotective properties),"[5]; mice irradiated with gamma rays 1.3 Gy, then fed 48 h succinic acid 20 mg/kg body wt., critical value 16±2",16.0 ± 1.6
same,"patients of functional class I, day 30",[6]; [9],9
same,"patients of functional class II, day 30",[6]; [9],7
same,"patients of functional class III, day 30",[6]; [9],4
same,"patients of functional class IV, day 30",[6]; [9],0
same,"patients of functional class I, day 60",[6]; [10],9
same,"patients of functional class II, day 60",[6]; [10],7
same,"patients of functional class III, day 60",[6]; [10],4
same,"patients of functional class IV, day 60",[6]; [10],0
same,"patients of functional class I, day 90",[6]; [11],10
same,"patients of functional class II, day 90",[6]; [11],7
same,"patients of functional class III, day 90",[6]; [11],3
same,"patients of functional class IV, day 90",[6]; [11],0
same,"cardiotonic properties / dynamics of functional class, conclusion in words","[6]; 100 mg twice per day, 3 months",more expressed
same,"patients of functional class I, day 0",[6]; [12],8
same,"patients of functional class II, day 0",[6]; [12],7
same,"patients of functional class III, day 0",[6]; [12],5
same,"patients of functional class IV, day 0",[6]; [12],0
